# Read-outs that look alike come from different tables or passages of the source.
# What was measured:
# [1] = system: Capan-1 (pancreatic cancer cell line); test: In vitro cell proliferation inhibition test with isobologram analysis (Test Example 3), Capan-1; type: cell-based, human; conditions: for effect of combined use with Lipo in isobologram analysis / DNA damage repair inhibitor (Ceralasertib) FIC: Capan-1; for effect of combined use with Lipo in isobologram analysis: DNA damage repair inhibitor combined with Lipo, 6 days culture; for IC50: Homo sapiens, CAPAN-1, Capan-1, read-out: IC50 value (nmol/L) of DNA damage repair inhibitor (Ceralasertib) at each of concentration points of Lipo
# Procedure: (§1) A Cell Counting Kit-8 (Dojindo Molecular Technologies. Inc.) was used for a living cell detection method, and the absorbance at 460 nm after 4 hours of reagent addition was measured with a microplate reader to obtain the IC50 value. [table] As various DNA damage repair inhibitors to be used in combination with the liposome composition, the following DNA damage repair inhibitors were used; ceralasertib ([…] Biotechnology, Inc.) as an ATR inhibitor, prexasertib ([…] Biotechnology, Inc.) as a CHK1/2 inhibitor, […] Biotechnology, Inc.) as a DNA-PK inhibitor, […] Biotechnology, Inc.) as an ATM inhibitor, ZN-c3 ([…] Biotechnology, Inc.) as a WEE1 inhibitor, and olaparib ([…] Biotechnology, Inc.) as a PARP inhibitor. […] [table] […] First, the IC50 value of Lipo alone and the IC50 value of various DNA damage repair inhibitors alone were determined. Next, various DNA damage repair inhibitors were used in combination at each of the set concentration points of Lipo, and the IC50 value of the DNA damage repair inhibitors was determined. A value obtained by […] was denoted as “Lipo FIC”, and a value obtained by dividing this value by the IC50 value of the various DNA damage repair inhibitors was denoted as “various DNA damage repair inhibitor FIC”, and then these two values were recorded as one set of values. […] In addition, Lipo was used in combination at each of the concentration points of the various DNA damage repair inhibitors which were set in the same manner, and the IC50 value of the Lipo was determined. A value obtained by dividing this value by the IC50 value of Lipo alone was denoted as “Lipo FIC”, and a value obtained by dividing this value by the IC50 value of the various DNA damage repair inhibitors was denoted as “various DNA damage repair inhibitor FIC”, and then these two values were recorded as one set of values. […] As shown in Table 8 and Table 9, an isobologram was obtained by plotting each set of these values on the graph of various DNA damage repair inhibitors FIC v.s. Lipo FIC. […] A case of being plotted to the right indicates an “antagonistic effect”, which is regarded as an inappropriate effect of combined use. FIG. 5 to FIG. 21 show the results.
# [2] = system: ES-2 (ovarian cancer cell line); test: In vitro cell proliferation inhibition test with isobologram analysis (Test Example 3), ES-2; type: cell-based; conditions: DNA damage repair inhibitor combined with Lipo, 3 days culture
# Procedure: as §1
# [3] = system: DMS114 (lung cancer cell line); test: In vitro cell proliferation inhibition test with isobologram analysis (Test Example 3), DMS 114; type: cell-based; conditions: DNA damage repair inhibitor combined with Lipo, 5 days culture
# Procedure: as §1
# [4] = system: Capan-1 cells (human pancreatic cancer cell line) subcutaneous tumor; test: Drug efficacy in pancreatic cancer cell line (Capan-1) model, combined use of Lipo and olaparib (Test Example 1); type: in vivo, mouse Balb/cAJcl-nu/nu; conditions: same dosing as Table 1; relative to no-drug group; day 28
compound,measurement,setting,value
C[C@@H]1COCCN1c1cc(C2([S@](C)(=N)=O)CC2)nc(-c2cc[nH]c3nccc2-3)n1 [Ceralasertib],effect of combined use with Lipo in isobologram analysis,[1],synergistic effect
same,DNA damage repair inhibitor (Ceralasertib) FIC,"[1]; Table 8, Lipo 0.0 nmol/L",1.0
same,DNA damage repair inhibitor (Ceralasertib) FIC,"[1]; Table 8, Lipo 0.14 nmol/L",0.7
same,DNA damage repair inhibitor (Ceralasertib) FIC,"[1]; Table 8, Lipo 0.41 nmol/L",0.9
same,DNA damage repair inhibitor (Ceralasertib) FIC,"[1]; Table 8, Lipo 1.23 nmol/L",0.9
same,DNA damage repair inhibitor (Ceralasertib) FIC,"[1]; Table 8, Lipo 3.7 nmol/L",0.2
same,DNA damage repair inhibitor (Ceralasertib) FIC,"[1]; Table 8, Lipo 11.1 nmol/L",0.02
same,DNA damage repair inhibitor (Ceralasertib) FIC,"[1]; Table 9, ceralasertib 0.0 nmol/L",0.0
same,DNA damage repair inhibitor (Ceralasertib) FIC,"[1]; Table 9, ceralasertib 4.57 nmol/L with Lipo",0.01
same,DNA damage repair inhibitor (Ceralasertib) FIC,"[1]; Table 9, ceralasertib 13.7 nmol/L with Lipo",0.02
same,DNA damage repair inhibitor (Ceralasertib) FIC,"[1]; Table 9, ceralasertib 41.2 nmol/L with Lipo",0.05
same,DNA damage repair inhibitor (Ceralasertib) FIC,"[1]; Table 9, ceralasertib 123 nmol/L with Lipo",0.1
same,DNA damage repair inhibitor (Ceralasertib) FIC,"[1]; Table 9, ceralasertib 370 nmol/L with Lipo",0.4
same,IC50,[1]; Lipo 0.0 nmol/L (ceralasertib alone),893 nmol/L
same,IC50,[1]; combined with Lipo 0.14 nmol/L,634 nmol/L
same,IC50,[1]; combined with Lipo 0.41 nmol/L,809 nmol/L
same,IC50,[1]; combined with Lipo 1.23 nmol/L,798 nmol/L
same,IC50,[1]; combined with Lipo 3.7 nmol/L,181 nmol/L
same,IC50,[1]; combined with Lipo 11.1 nmol/L,14.9 nmol/L
same,effect of combined use with Lipo in isobologram analysis,[2],synergistic effect
same,effect of combined use with Lipo in isobologram analysis,[3],synergistic effect
COc1ccc([C@@H](O)c2cc(-c3ncnc4cc(N5CCOCC5)ccc34)c(F)cc2Cl)nn1 [Example M3814],effect of combined use with Lipo in isobologram analysis,[1],synergistic effect
same,effect of combined use with Lipo in isobologram analysis,[2],additive effect
same,effect of combined use with Lipo in isobologram analysis,[3],synergistic effect
COc1cc2ncc3c(c2cc1-c1cn(C)nc1C)n(-c1c(F)cncc1OC)c(=O)n3C [Example M4076],effect of combined use with Lipo in isobologram analysis,[1],additive effect
same,effect of combined use with Lipo in isobologram analysis,[2],synergistic effect
same,effect of combined use with Lipo in isobologram analysis,[3],synergistic effect
O=C(c1cc(Cc2n[nH]c(=O)c3ccccc23)ccc1F)N1CCN(C(=O)C2CC2)CC1 [Olaparib],effect of combined use with Lipo in isobologram analysis,[1],synergistic effect
same,effect of combined use with Lipo in isobologram analysis,[2],synergistic effect
same,"Drug efficacy (tumor diameter) 28 days after administration, proportion to Comparative Example 1",[4],(80%)
same,Safety (body weight: g) 28 days after administration,"Capan-1 tumor-bearing female nude mice, Lipo 0.5 mg/kg or topotecan 5 mg/kg i.v. weekly x 4, olaparib 50 mg/kg i.p. daily x 6 days/week x 4 weeks, day 28",103 g
same,"Safety (body weight) 28 days after administration, proportion to Comparative Example 1","same dosing as Table 1, relative to no-drug group, day 28",(97%)
same,effect of combined use with Lipo in isobologram analysis,[3],synergistic effect
CC[C@@]1(O)C(=O)OCc2c1cc1n(c2=O)Cc2cc3c(CN(C)C)c(O)ccc3nc2-1 [Topotecan],"Drug efficacy (tumor diameter) 28 days after administration, proportion to Comparative Example 1",[4],(80%)
same,"Safety (body weight) 28 days after administration, proportion to Comparative Example 1","mouse, in vivo",(96%)
C=CCn1c(=O)c2cnc(Nc3ccc(N4CCN(C)CC4)cc3)nc2n1-c1ccc2c(n1)[C@@](O)(CC)CC2 [ZN-c3],effect of combined use with Lipo in isobologram analysis,[1],additive effect
same,effect of combined use with Lipo in isobologram analysis,[2],synergistic effect
same,effect of combined use with Lipo in isobologram analysis,[3],additive effect
COc1cccc(OCCCN)c1-c1cc(Nc2cnc(C#N)cn2)n[nH]1 [prexasertib],effect of combined use with Lipo in isobologram analysis,[2],synergistic effect
same,effect of combined use with Lipo in isobologram analysis,[3],synergistic effect

# Reference: patent publication US20250268827A1, “COMBINED MEDICINAL DRUG INCLUDING LIPOSOME COMPOSITION ENCOMPASSING TOPOTECAN OR SALT THEREOF AND DNA DAMAGE REPAIR INHIBITOR” (FUJIFILM Corporation, priority 2022, published 2025)
